# Assay results: ChEMBL document CHEMBL5113462, “Synthesis and evaluation of inhibitors of Mycobacterium tuberculosis UGM using bioisosteric replacement” (Bioorg Med Chem, 2022)
# pKd: −log10 of the molar value.
# Biological target: UDP-galactopyranose mutase (Klebsiella pneumoniae) (UniProt Q48485)
# Assay: Inhibition of Klebsiella pneumoniae UGM expressed in Escherichia coli BL21(DE3) at 500 uM by Fluorescence polarization assay relative to control
# Settings: not given
# Sequence of UDP-galactopyranose mutase (Klebsiella pneumoniae) (Q48485 whole entry): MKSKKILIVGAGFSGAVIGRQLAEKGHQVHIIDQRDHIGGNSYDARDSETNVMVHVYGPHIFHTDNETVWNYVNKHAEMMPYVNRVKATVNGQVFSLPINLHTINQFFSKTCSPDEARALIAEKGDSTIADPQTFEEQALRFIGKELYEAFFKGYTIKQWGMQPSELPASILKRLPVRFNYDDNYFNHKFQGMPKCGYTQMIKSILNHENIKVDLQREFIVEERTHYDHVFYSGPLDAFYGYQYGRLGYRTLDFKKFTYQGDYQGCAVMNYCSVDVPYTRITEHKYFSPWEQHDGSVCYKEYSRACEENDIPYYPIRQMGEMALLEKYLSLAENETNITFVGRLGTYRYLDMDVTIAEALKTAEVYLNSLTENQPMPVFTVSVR
row,SMILES,inhibition
1,O=C(/C=C/c1ccccc1)N[C@@H](Cc1ccc(I)cc1)C(=O)O,60%
2,O=c1ccn([C@@H]2O[C@H](COP(=O)(O)OP(=O)(O)O)[C@@H](O)[C@H]2O)c(=O)[nH]1 [URIDINE_DIPHOSPHATE],63%
3,O=C(/C=C/c1ccccc1)N[C@@H](Cc1ccc(Br)cc1)C(=O)O,59%
4,O=C(/C=C/c1ccccc1)N[C@@H](Cc1ccccc1)C(=O)O,59%
5,O=C(/C=C/c1ccccc1)N[C@@H](Cc1ccc([N+](=O)[O-])cc1)C(=O)O,59%
6,O=C(/C=C/c1ccccc1)N[C@@H](Cc1ccc(Cl)cc1)C(=O)O,41%
7,O=C(/C=C/c1ccc(O)c(O)c1)O[C@H](Cc1ccc(O)c(O)c1)C(=O)O [ROSMARINIC ACID],46%
8,O=C(/C=C/c1ccccc1)N[C@@H](Cc1ccc(F)cc1)C(=O)O,58%

# Biological target: UDP-galactopyranose mutase (Mycobacterium tuberculosis) (UniProt P9WIQ1)
# Sequence (P9WIQ1 whole entry, looked up): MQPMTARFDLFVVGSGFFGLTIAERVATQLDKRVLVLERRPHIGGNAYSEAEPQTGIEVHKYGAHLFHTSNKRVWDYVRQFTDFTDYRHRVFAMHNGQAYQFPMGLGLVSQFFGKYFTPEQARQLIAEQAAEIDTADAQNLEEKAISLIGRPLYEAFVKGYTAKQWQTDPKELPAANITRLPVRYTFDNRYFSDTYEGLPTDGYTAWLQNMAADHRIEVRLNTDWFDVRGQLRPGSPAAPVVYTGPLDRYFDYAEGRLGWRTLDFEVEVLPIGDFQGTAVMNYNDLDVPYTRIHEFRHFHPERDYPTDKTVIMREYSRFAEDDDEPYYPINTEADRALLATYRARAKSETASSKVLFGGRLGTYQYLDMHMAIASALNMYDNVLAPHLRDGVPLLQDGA
# Assay: Inhibition of Mycobacterium tuberculosis UGM expressed in Escherichia coli BL21(DE3) at 500 uM by Fluorescence polarization assay relative to control
# Settings: not given
row,SMILES,inhibition
1,O=C(/C=C/c1ccccc1)N[C@@H](Cc1ccc(I)cc1)C(=O)O,77%
2,O=c1ccn([C@@H]2O[C@H](COP(=O)(O)OP(=O)(O)O)[C@@H](O)[C@H]2O)c(=O)[nH]1 [URIDINE_DIPHOSPHATE],86%
3,O=C(/C=C/c1ccccc1)N[C@@H](Cc1ccc(Br)cc1)C(=O)O,82%
4,O=C(/C=C/c1ccccc1)N[C@@H](Cc1ccc(O)cc1)C(=O)O,29%
5,O=C(/C=C/c1ccccc1)N[C@@H](Cc1ccccc1)C(=O)O,45%
6,O=C(/C=C/c1ccccc1)N[C@@H](Cc1ccc([N+](=O)[O-])cc1)C(=O)O,62%
7,O=C(/C=C/c1ccccc1)N[C@@H](Cc1ccc(Cl)cc1)C(=O)O,49%
8,COc1cc(/C=C/C(=O)N[C@@H](Cc2ccc(O)c(O)c2)C(=O)O)ccc1O,19%
9,O=C(/C=C/c1ccc(O)c(O)c1)O[C@H](Cc1ccc(O)c(O)c1)C(=O)O [ROSMARINIC ACID],48%
10,O=C(/C=C/c1ccc(O)c(O)c1)N[C@@H](Cc1ccc(O)cc1)C(=O)O,18%
11,O=C(/C=C/c1ccccc1)N[C@@H](Cc1ccc(F)cc1)C(=O)O,46%

# Biological target: UDP-galactopyranose mutase (Klebsiella pneumoniae, UniProt Q48485)
# Sequence (Q48485 whole entry): as the sequence (Q48485 whole entry) above
# Assay: Inhibition of Klebsiella pneumoniae UGM expressed in Escherichia coli BL21(DE3) assessed as dissociation constant by fluorescence polarization assay
# Settings: not given
row,SMILES,pKd
1,O=C(/C=C/c1ccccc1)N[C@@H](Cc1ccc(I)cc1)C(=O)O,4.77
2,O=c1ccn([C@@H]2O[C@H](COP(=O)(O)OP(=O)(O)O)[C@@H](O)[C@H]2O)c(=O)[nH]1 [URIDINE_DIPHOSPHATE],4.27
3,O=C(/C=C/c1ccccc1)N[C@@H](Cc1ccc(Br)cc1)C(=O)O,4.24
4,O=C(/C=C/c1ccccc1)N[C@@H](Cc1ccccc1)C(=O)O,< 3.00
5,O=C(/C=C/c1ccccc1)N[C@@H](Cc1ccc([N+](=O)[O-])cc1)C(=O)O,3.64
6,O=C(/C=C/c1ccccc1)N[C@@H](Cc1ccc(Cl)cc1)C(=O)O,4.37
7,O=C(/C=C/c1ccc(O)c(O)c1)O[C@H](Cc1ccc(O)c(O)c1)C(=O)O [ROSMARINIC ACID],4.16
8,O=C(/C=C/c1ccccc1)N[C@@H](Cc1ccc(F)cc1)C(=O)O,3.81

# Biological target: T1, UDP-galactopyranose mutase (Mycobacterium tuberculosis, UniProt P9WIQ1)
# T1 sequence (P9WIQ1 whole entry): as the sequence (P9WIQ1 whole entry, looked up) above
# Assay: Inhibition of Mycobacterium tuberculosis UGM expressed in Escherichia coli BL21(DE3) assessed as dissociation constant by SPR analysis
# Settings: not given
row,SMILES,pKd
1,O=C(/C=C/c1ccccc1)N[C@@H](Cc1ccc(Br)cc1)C(=O)O,3.98

# Biological target: UDP-galactopyranose mutase (Mycobacterium tuberculosis) (UniProt P9WIQ1)
# Assay: Inhibition of Mycobacterium tuberculosis UGM expressed in Escherichia coli BL21(DE3) assessed as formation of UDP-galactopyranose at 500 uM preincubated for 5 min followed by substrate addition and measured after 1 to 3 mins using UDP-galactofuranose as substrate by HPLC analysis relative to control
# Settings: time 6-8 min
row,SMILES,inhibition
1,O=C(/C=C/c1ccccc1)N[C@@H](Cc1ccc(I)cc1)C(=O)O,54.6%
2,O=c1ccn([C@@H]2O[C@H](COP(=O)(O)OP(=O)(O)O)[C@@H](O)[C@H]2O)c(=O)[nH]1 [URIDINE_DIPHOSPHATE],47.6%
3,O=C(/C=C/c1ccccc1)N[C@@H](Cc1ccc(Br)cc1)C(=O)O,87%
4,O=C(/C=C/c1ccccc1)N[C@@H](Cc1ccc([N+](=O)[O-])cc1)C(=O)O,35.2%
5,O=C(/C=C/c1ccccc1)N[C@@H](Cc1ccc(Cl)cc1)C(=O)O,63.3%

# Biological target: T1, UDP-galactopyranose mutase
# Assay: Inhibition of Mycobacterium tuberculosis UGM expressed in Escherichia coli BL21(DE3) assessed as dissociation constant by fluorescence polarization assay
# Settings: not given
row,SMILES,pKd
1,O=C(/C=C/c1ccccc1)N[C@@H](Cc1ccc(I)cc1)C(=O)O,3.71
2,O=c1ccn([C@@H]2O[C@H](COP(=O)(O)OP(=O)(O)O)[C@@H](O)[C@H]2O)c(=O)[nH]1 [URIDINE_DIPHOSPHATE],4.46
3,O=C(/C=C/c1ccccc1)N[C@@H](Cc1ccc(Br)cc1)C(=O)O,4.20
4,O=C(/C=C/c1ccccc1)N[C@@H](Cc1ccccc1)C(=O)O,< 3.00
5,O=C(/C=C/c1ccccc1)N[C@@H](Cc1ccc([N+](=O)[O-])cc1)C(=O)O,3.40
6,O=C(/C=C/c1ccccc1)N[C@@H](Cc1ccc(Cl)cc1)C(=O)O,3.45
7,O=C(/C=C/c1ccc(O)c(O)c1)O[C@H](Cc1ccc(O)c(O)c1)C(=O)O [ROSMARINIC ACID],3.19
8,O=C(/C=C/c1ccccc1)N[C@@H](Cc1ccc(F)cc1)C(=O)O,3.02
